# Biological target: T1, human Glucose-dependent Insulinotropic Polypeptide Receptor (hGIPR) (Homo sapiens, UniProt P48546)
# T1 sequence (P48546 22-466): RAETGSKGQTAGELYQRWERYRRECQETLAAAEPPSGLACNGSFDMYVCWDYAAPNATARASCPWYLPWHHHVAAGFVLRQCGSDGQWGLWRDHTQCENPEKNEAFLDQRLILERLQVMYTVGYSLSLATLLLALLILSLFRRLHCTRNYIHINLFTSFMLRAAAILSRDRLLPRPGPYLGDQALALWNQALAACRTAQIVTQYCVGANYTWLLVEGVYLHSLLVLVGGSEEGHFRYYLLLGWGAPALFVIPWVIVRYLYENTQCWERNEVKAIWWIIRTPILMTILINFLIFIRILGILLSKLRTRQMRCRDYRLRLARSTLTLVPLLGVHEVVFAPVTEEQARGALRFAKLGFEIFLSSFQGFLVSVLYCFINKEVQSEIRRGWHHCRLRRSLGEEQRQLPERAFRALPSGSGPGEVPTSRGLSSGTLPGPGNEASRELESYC
# Test: Functional in vitro GIPR antagonist potency assay (cAMP HTRF, CHO-K1 cells stably expressing hGIPR, hGIP stimulation at about EC80)
# Format: cell-based
# Settings: geometric mean, hGIP at estimated EC80, examples marked ^2: overall geometric mean of multiple forms (including salts) tested
# Description: Example AA. Functional In Vitro GIPR Antagonist Potency Assay
# The functional in vitro antagonist potency for test compounds was determined by monitoring intracellular cyclic adenosine monophosphate (cAMP) levels in Chinese hamster ovary (CHO)—K1 cells stably expressing the human Glucose-dependent Insulinotropic Polypeptide Receptor (hGIPR). Following agonist activation, hGIPR associates with the G-protein complex causing the Gαs subunit to exchange bound guanosine diphosphate (GDP) for guanosine triphosphate (GTP), followed by dissociation of the Gαs-GTP complex. The activated Gas subunit can couple to downstream effectors to regulate the levels of second messengers or cAMP within the cell. Thereby, determination of intracellular cAMP levels allows for pharmacological characterization. Intracellular cAMP levels are quantitated using a homogenous assay utilizing the Homogeneous Time Resolved Fluorescence (HTRF) technology from Perkin Elmer. […] The two entities compete for binding to a monoclonal anti-cAMP antibody labeled with cryptate. The specific signal is inversely proportional to the concentration of cAMP in the cells.
# Test compounds were solubilized to a concentration of 30 mM in 100% dimethyl sulfoxide (DMSO). An 11-point dilution series using 1 in 3.162-fold serial dilutions was created in 100% DMSO with a top concentration of 8 mM. The serially diluted compound was spotted with an Echo Acoustic liquid handler (Beckman Coulter) into a 384-well assay plate (Corning, Cat No. 3824) at 50 nL/well with duplicate points at each concentration, at a 200× final assay concentration (FAC). The final compound concentration range in the assay was 40 μM to […], with a final DMSO concentration of 0.5%.
# Frozen assay-ready vials (at 1×10^7 cells/vial) of CHO-K1 cells stably expressing the Gs-coupled human GIPR receptor (Eurofins, DiscoverX, Cat No. 95-0146C2) were thawed, counted, and resuspended in assay buffer consisting of Hank's Balanced Salt Solution (HBSS, Lonza Cat No. 10-527) containing 20 mM (4-(2-hydroxyethyl)-1-piperazineethanesulfonic acid (HEPES, Lonza, Cat No. 17-737E), 0.1% bovine serum albumin (BSA, Sigma, Cat No. A7979), and 200 μM 3-isobutyl-1-methylxanthine (IBMX, Sigma, Cat No. 15879) at a density of 4×10^5 cells/mL. Cells were added to assay plate (5 μL/well of 4×10^5 cells/mL stock for 2,000 cells/well final) containing 50 nL of 200× FAC test compound, and incubated at 37° C. (95% O2: 5% CO2) for 2 hours, with micro-clime lids (Labcyte, Cat No. LLS-0310). Following the 2-hour cell and compound incubation, a stimulation mix comprised of hGIPR agonist human glucose-dependent insulinotropic polypeptide (hGIP, full length, Sigma Cat No. G2269) in assay buffer/0.1% DMSO was added to the assay plate (5 μL/well) at an estimated EC80 FAC (based on previous hGIP agonist curves) and incubated for another 30 minutes with micro-clime lids at 37° C. (95% O2: 5% CO2), after which intracellular cAMP levels were quantified as per Perkin Elmer's protocol (5 μL of d2 and then 5 μL cryptate, incubated for 1 hour at room temperature). Emission spectra of samples were measured on a Pherastar plate reader (BMG Labtech Inc) using a HTRF protocol (excitation, 320 nm; emission, 665 nm/620 nm).
# (95% O2: 5% CO2), with a micro-clime lid. Following the 2-hour cell and DMSO incubation, a hGIP concentration response curve at 2× FAC (12-point curve using 1 in 3 serial dilutions, with triplicate points at each concentration, 100 nM final top concentration) in assay buffer/1% DMSO was added (5 μL/well) and incubated for a further 30 minutes with a micro-clime lid at 37° C. (95% O2: 5% CO2), after which intracellular cAMP levels were quantified and samples measured as described previously. Experiments passed quality control if the agonist concentration used for stimulation fell between the on-the-day EC50-EC90. […]
row,SMILES,IC50 [µM]
1,"CC(C)c1ccc(NC(=O)N2CCC[C@@H]2C(=O)Nc2ccc(-c3ccc(C(=O)O)c(F)c3)cc2)cc1 [Example 28, 3-Fluoro-4′-[(1-{[4-(propan-2-yl)phenyl]carbamoyl}-D-prolyl)amino][1,1′-biphenyl]-4-carboxylic acid]",0.01
2,"COc1cc(C(=O)O)ccc1-c1ccc(NC(=O)[C@H]2CCCN2C(=O)Nc2ccc(C(C)C)cc2)cc1 [Example 29, 2-Methoxy-4′-[(1-{[4-(propan-2-yl)phenyl]carbamoyl}-D-prolyl)amino][1,1′-biphenyl]-4-carboxylic acid]",0.017
3,"COc1cc(-c2ccc(NC(=O)[C@H]3CCCN3C(=O)Nc3ccc(C(C)C)c(C)c3)cc2)ccc1C(=O)O [Example 30, 3-Methoxy-4′-[(1-{[3-methyl-4-(propan-2-yl)phenyl]carbamoyl}-D-prolyl)amino][1,1′-biphenyl]-4-carboxylic acid]",0.0057
4,"O=C(O)c1ccc(-c2ccc(NC(=O)[C@H]3CCCN3C(=O)Nc3ccc(C(F)(F)F)cc3)nc2)cc1 [Example 31, 4-{6-[(1-{[4-(Trifluoromethyl)phenyl]carbamoyl}-D-prolyl)amino]pyridin-3-yl}benzoic acid]",0.0078
5,"COc1cc(-c2ccc(NC(=O)[C@H]3CCCN3C(=O)Nc3ccc(C(C)C)c(F)c3)cc2)ccc1C(=O)O [Example 32, 4′-[(1-{[3-Fluoro-4-(propan-2-yl)phenyl]carbamoyl}-D-prolyl)amino]-3-methoxy[1,1′-biphenyl]-4-carboxylic acid]",0.0061
6,"CC(C)c1ccc(NC(=O)N2CCC[C@@H]2C(=O)Nc2cnc(-c3ccc(C(=O)O)cc3)c(F)c2)cc1 [Example 33, 4-{3-Fluoro-5-[(1-{[4-(propan-2-yl)phenyl]carbamoyl}-D-prolyl)amino]pyridin-2-yl}benzoic acid]",0.0063
7,"CO[C@@H]1C[C@H](C(=O)Nc2ccc(-c3ccc(C(=O)O)cc3)cc2)N(C(=O)Nc2ccc(C(C)C)cc2)C1 [Example 36, 4′-{[(4R)-4-Methoxy-1-{[4-(propan-2-yl)phenyl]carbamoyl}-D-prolyl]amino}[1,1′-biphenyl]-4-carboxylic acid]",0.046
8,"CC(C)c1ccc([C@H](C)NC(=O)N2CCC[C@@H]2C(=O)Nc2ccc(-c3ccc(C(=O)O)cc3)cc2)cc1 [Example 37, 4′-{[1-({(1S)-1-[4-(Propan-2-yl)phenyl]ethyl}carbamoyl)-D-prolyl]amino}[1,1′-biphenyl]-4-carboxylic acid]",0.058
9,"O=C(O)c1cccc(-c2ccc(NC(=O)[C@H]3CCCN3C(=O)Nc3ccc(C4CCC4)cc3)nc2)c1 [Example 38, 3-[6-({1-[(4-Cyclobutylphenyl)carbamoyl]-D-prolyl}amino)pyridin-3-yl]benzoic acid]",0.017
10,"Cc1cc(NC(=O)N2CCC[C@@H]2C(=O)Nc2ccc(-c3ccc(C(=O)O)cc3)cc2)ccc1C(C)C [Example 39, ammonium 4′-[(1-{[3-methyl-4-(propan-2-yl)phenyl]carbamoyl}-D-prolyl)amino][1,1′-biphenyl]-4-carboxylate]",0.0037
11,"Cc1cc(-c2ccc(NC(=O)[C@H]3CCCN3C(=O)Nc3ccc(C(C)C)cc3)cc2)ccc1C(=O)O [Example 40, 3-methyl-4′-[(1-{[4-(propan-2-yl)phenyl]carbamoyl}-D-prolyl)amino][1,1′-biphenyl]-4-carboxylic acid]",0.0073
12,"O=C(O)c1ccc(-c2ccc(NC(=O)[C@H]3CCCN3C(=O)Nc3ccc(C4(C(F)(F)F)CC4)cc3)cc2)cc1 [Example 42, ammonium 4′-{[1-({4-[1-(trifluoromethyl)cyclopropyl]phenyl}carbamoyl)-D-prolyl]amino}[1,1′-biphenyl]-4-carboxylate]",0.015
13,"Cc1cc(NC(=O)N2CCC[C@@H]2C(=O)Nc2ccc(-c3ccc(C(=O)O)cc3)cc2)ccc1Cl [Example 43, ammonium 4′-({1-[(4-chloro-3-methylphenyl)carbamoyl]-D-prolyl}amino)[1,1′-biphenyl]-4-carboxylate]",0.049
14,"CC(C)c1ccc(NC(=O)N2CCC[C@@H]2C(=O)Nc2ccc(-c3cc(C(=O)O)c(F)cc3F)cc2)cc1 [Example 45, 4,6-difluoro-4′-[(1-{[4-(propan-2-yl)phenyl]carbamoyl}-D-prolyl)amino][1,1′-biphenyl]-3-carboxylic acid]",0.54
15,"CC(C)c1ccc(NC(=O)N2CCC[C@@H]2C(=O)Nc2ccc(-c3ccc(O)cc3)cc2)cc1 [Example 46, (2R)-N^2-(4′-hydroxy[1,1′-biphenyl]-4-yl)-N^1-[4-(propan-2-yl)phenyl]pyrrolidine-1,2-dicarboxamide]",0.16
16,"CC(C)c1ccc(NC(=O)N2CCC[C@@H]2C(=O)Nc2ccc(-c3cc(F)c(O)cc3F)cc2)cc1 [Example 47, (2R)-N^2-(2′,5′-difluoro-4′-hydroxy[1,1′-biphenyl]-4-yl)-N^1-[4-(propan-2-yl)phenyl]pyrrolidine-1,2-dicarboxamide]",0.047
17,"CC(C)c1ccc(NC(=O)N2CCC[C@@H]2C(=O)Nc2ccc(-c3c(F)cc(C(=O)O)cc3F)cc2)cc1 [Example 48, 2,6-difluoro-4′-[(1-{[4-(propan-2-yl)phenyl]carbamoyl}-D-prolyl)amino][1,1′-biphenyl]-4-carboxylic acid]",0.023
18,"CC(C)c1ccc(NC(=O)N2CCC[C@@H]2C(=O)Nc2ccc(-c3ccc(C(=O)O)cc3C(F)(F)F)cc2)cc1 [Example 49, 4′-[(1-{[4-(propan-2-yl)phenyl]carbamoyl}-D-prolyl)amino]-2-(trifluoromethyl)[1,1′-biphenyl]-4-carboxylic acid]",0.014
19,"Cc1cc(C(=O)O)cc(-c2ccc(NC(=O)[C@H]3CCCN3C(=O)Nc3ccc(C(C)C)cc3)cc2)c1 [Example 50, 5-methyl-4′-[(1-{[4-(propan-2-yl)phenyl]carbamoyl}-D-prolyl)amino][1,1′-biphenyl]-3-carboxylic acid]",0.083
20,"CC(C)c1ccc(NC(=O)N2CCC[C@@H]2C(=O)Nc2ccc(-c3ccc(O)cc3F)cc2)cc1 [Example 51, (2R)-N^2-(2′-fluoro-4′-hydroxy[1,1′-biphenyl]-4-yl)-N^1-[4-(propan-2-yl)phenyl]pyrrolidine-1,2-dicarboxamide]",0.28
21,"Cc1cc(-c2ccc(NC(=O)[C@H]3CCCN3C(=O)Nc3ccc(C(C)C)cc3)cc2)ccc1C(N)=O [Example 52, (2R)-N^2-(4′-carbamoyl-3′-methyl[1,1′-biphenyl]-4-yl)-N^1-[4-(propan-2-yl)phenyl]pyrrolidine-1,2-dicarboxamide]",0.12
22,"Cc1cc(-c2ccc(NC(=O)[C@H]3CCCN3C(=O)Nc3ccc(C(C)C)cc3)cc2)cc(C)c1C(=O)O [Example 53, 3,5-dimethyl-4′-[(1-{[4-(propan-2-yl)phenyl]carbamoyl}-D-prolyl)amino][1,1′-biphenyl]-4-carboxylic acid]",0.015
